Reference: PMC8379256, “A xanthene derivative, DS20060511, attenuates glucose intolerance by inducing skeletal muscle-specific GLUT4 translocation in mice” (Communications Biology, 2021)
Where “and” joins values, the source holds several entries; their conditions need not be identical. Equal values may be shown once.

What was measured:
Assay type in all cases: in vivo, mouse
GLUT4 = GLUT4 protein in plasma membrane fraction of triceps surae muscle (immunoblot); conditions: DS20060511 10 mg kg−1 or insulin 5 U kg−1 via inferior vena cava, 10 min; Fig. 2e
Procedure: The plasma membrane fraction of each skeletal muscle specimen was prepared as described previously[48],[49]. Briefly, the triceps surae muscle was homogenized in Buffer A (20 mM HEPES, 1 mM EDTA, 1 mM PMSF, and protease inhibitor) containing 250 mM sucrose on ice. The muscle homogenate was centrifuged at 2000 × g for 10 min at 4 °C to remove any unhomogenized muscle fibers. The supernatant was then centrifuged at 19,000 × g for 20 min at 4 °C. The pellet was resuspended in 3 mL Buffer A, layered on a 6 mL sucrose cushion (38% sucrose in Buffer A) and centrifuged at 100,000 × g for 60 min at 4 °C. The membrane fraction recovered on top of the sucrose cushion was resuspended in Buffer A and centrifuged at 40,000 × g for 20 min at 4 °C. The pellet was designated as the plasma membrane fraction and subjected to immunoblotting.
Phosphorylated or total protein of IRβ and IRS1 was resolved on 7% SDS-PAGE and analyzed using specific antibodies against IRβ, IRS1, and phosphotyrosine. […] Bound antibodies were detected with HRP-conjugated secondary antibodies using ECL detection reagents (GE Healthcare, Chicago, IL).

STZ-treated C57BL/6 mice = experiment: Insulin tolerance test (ITT) in STZ-treated C57BL/6 mice; conditions: for Blood glucose: ITT
Procedure: Arrowheads indicate the characteristic ruffled structure of the polymerized actin and actin-associated surface GLUT4. d GLUT4 translocation activity of 30 μM DS20060511 or 100 nM insulin in the presence of the actin polymerization inhibitor, Latrunculin B, at the indicated concentrations. Values shown are means ± SEM, n = 3. **P < 0.01 vs. 0 nM Latrunculin B by one-way ANOVA followed by Dunnett’s test. e Concentration-dependent insulin-stimulated GLUT4 translocation in L6-GLUT4myc myotubes with or without 30 μM DS20060511 (n = 3). f Concentration-dependent DS20060511-stimulated 2-DG uptake with 100 nM insulin in isolated muscles from C57BL/6 mice (n = 3). Values shown are means ± SEM. ***P < 0.001 by one-way ANOVA followed by Tukey’s test. g Blood glucose levels during ITT in STZ-treated C57BL/6 mice (n = 6–7). Vehicle or indicated dose of DS20060511 was given orally at the same time as 0.1 U kg^−1 insulin injection intraperitoneally. Values shown are means ± SEM. *P < 0.05 vs. vehicle by one-way ANOVA followed by Dunnett’s test. c Scale bar in all panels, 5 μm. Uncropped blots for a and b can be found in Supplementary Fig. 6.
C57BL/6 mice deprived of access to food overnight received an intraperitoneal injection of STZ (125 mg kg^−1) and a repeat injection a week later. Thereafter, their blood glucose levels were monitored and insufficient mice (blood glucose levels of under 400 mg dL^−1 or blood glucose levels after overnight food deprivation of under 200 mg dL^−1) were excluded from the experiment. Blood glucose levels were measured using Glutest Every (Sanwa Kagaku Kenkyusho, Nagoya, Japan) in blood samples collected from the tail vein.
Mice received the indicated oral dose of DS20060511 or vehicle at the same time as the intraperitoneal injection of insulin (Humulin) at the indicated dose. Blood glucose levels were measured using Glutest Every in blood samples collected from the tail vein at the indicated timepoints.

C57BL/6 mice = experiment: Blood glucose after DS20060511 alone in fed or overnight food-deprived mice; conditions: for Blood glucose: 30 mg/kg; for blood glucose levels (in words): 30 mg kg−1
Procedure: Fig. 2 Treatment with DS20060511 decreases the blood glucose levels via inducing GLUT4 translocation and increasing skeletal muscle glucose uptake. a, b Blood glucose levels after treatment with DS20060511 (30 mg kg^−1) in C57BL/6 mice that had received continued access to food (a) and mice that had been denied access to food overnight (b) (n = 8). Values shown are means ± SEM. **P < 0.01 vs. 0 min by one-way ANOVA followed by Dunnett’s test. c Blood glucose and plasma insulin levels during oral GTT in the C57BL/6 mice (n = 5–6). The mice received oral administration of vehicle or DS20060511 at the indicated dose, 15 min prior to glucose administration (1.5 g kg^−1). Values shown are means ± SEM. *P < 0.05, **P < 0.01 vs. vehicle by one-way ANOVA followed by Williams’ test. d [^3H]-2-DG uptake in the soleus muscle, gastrocnemius muscle (Gastro.), heart, and white adipose tissue (WAT) at 60 min during the intraperitoneal GTT in the C57BL/6 mice (n = 3). The mice received oral administration of vehicle or DS20060511 (30 mg kg^−1), 15 min prior to glucose administration (1 g kg^−1 glucose containing [^3H]-2-DG). […] Uncropped blots for e can be found in Supplementary Fig. 6.

For `COc1ccc2c(C)c(C(=O)O)ccc2c1C1C2=C(CC(C)(C)CC2=O)OC2=C1C(=O)CC(C)(C)C2` [DS20060511], the “GLUT4 protein expression levels in the plasma membrane fraction of skeletal muscles” value (GLUT4) was “increased GLUT4 protein expression levels in the plasma membrane fraction”, the Blood glucose (STZ-treated C57BL/6 mice; 10 mg/kg po with 0.1 U kg−1 insulin ip, 0 min, 10 mg/kg) was 516 mg/dL and 430 mg/dL and 520 mg/dL and 493 mg/dL and 480 mg/dL and 526 mg/dL and the Blood glucose (STZ-treated C57BL/6 mice; 10 mg/kg with insulin, 20 min, 10 mg/kg) was 427 mg/dL and 401 mg/dL and 313 mg/dL and 397 mg/dL and 311 mg/dL and 432 mg/dL. The Blood glucose (STZ-treated C57BL/6 mice; 30 mg/kg po with 0.1 U kg−1 insulin ip, 0 min, 30 mg/kg) was 433 mg/dL and 472 mg/dL and 458 mg/dL and 427 mg/dL and 461 mg/dL and 483 mg/dL and 532 mg/dL, the “blood glucose levels, combined with insulin vs insulin alone (in words)” value (STZ-treated C57BL/6 mice; STZ-treated mice, Fig. 4g) was “reduced to a greater degree” and the Blood glucose (C57BL/6 mice; Non-fasted, 0 min, individual mice) was 125 mg/dL and 139 mg/dL and 194 mg/dL and 126 mg/dL and 129 mg/dL and 150 mg/dL and 154 mg/dL and 134 mg/dL. The Blood glucose (C57BL/6 mice; Non-fasted, 30 min) was 134 mg/dL and 128 mg/dL and 101 mg/dL and 95 mg/dL and 122 mg/dL and 111 mg/dL and 121 mg/dL and 96 mg/dL, the Blood glucose (C57BL/6 mice; Overnight fasted, 0 min) was 58 mg/dL and 52 mg/dL and 73 mg/dL and 46 mg/dL and 54 mg/dL and 55 mg/dL and 61 mg/dL and the Blood glucose (C57BL/6 mice; Overnight fasted, 30 min) was 52 mg/dL and 53 mg/dL and 57 mg/dL and 60 mg/dL and 42 mg/dL and 55 mg/dL and 49 mg/dL. For the same compound, the Blood glucose (C57BL/6 mice; Overnight fasted, 60 min) was 56 mg/dL and 57 mg/dL and 59 mg/dL and 48 mg/dL and 50 mg/dL and 45 mg/dL, the “blood glucose levels (in words)” value (C57BL/6 mice; mice denied access to food overnight, Fig. 2b) was “no effect on the blood glucose levels” and the “blood glucose levels (in words)” value (C57BL/6 mice; mice with continued access to food, oral, Fig. 2a) was “modestly, but statistically significantly, reduced the blood glucose levels”.
